Source: patent US5871779A, “Treatment of arthropathies with vanadate compounds or analogues thereof” (Mount Sinai Hospital Corporation, priority 1996, dated 1999)

What was measured:
H460 = assay: MTT cytotoxicity assay, H460; format: cell-based, human; conditions: H460, 72 hours
Method: (§1) The relative cytotoxicity of various compounds on tumor cell lines was investigated as follows. Cytotoxicity was measured by the MTT microculture tetrazolium colorimetric assay for all cell lines. The relative cytotoxicity of Na3 VO4 and VOSO4 was investigated using the following tumor cell lines: P388(WT) murine leukemia, P388 (ADR) murine leukemia, Lewis murine lung, MCF7 (WT) human breast, […] human lung, K562 human erythroleukemia, A431 human epidermal, LS180 human colon and SK-OV-3 human ovarian. The relative cytotoxicity of doxorubicin, Na3 VO4 and VOSO4 was investigated using the following tumor cell lines: P388(WT) murine leukemia, P388 (ADR) murine leukemia, MCF7(WT) human breast and MCF7 (ADR) human breast. The relative cytotoxicity of BMOV, BEOV and naglivan was investigated using the following tumor cell lines: P388(WT) murine leukemia, P388 (ADR) murine leukemia, Lewis murine lung, H460 human lung, K562 human erythroleukemia, and SK-OV-3 human ovarian.
(§2) The cells were plated (number of cells/well was different from cell line to cell depending on the dividing rate) in a 96-well microculture plate 24 hours prior to the delivery of the vanadium compounds. Serial concentrations of solutions of the test compounds (0.05-100 μM) were delivered to the corresponding wells. A blank column (without cells) and a control column (with cells without vanadium) were left. The cells were incubated for 72 hours continuously. An MTT solution was added to each well after this incubation period and the cells were incubated for 4 more hours for the completion of the dyeing process. The medium was removed find DMSO was added to each well. The absorbance of each well was read with a Titertek Multiskan (310C) spectrophotometer at 570 nm. The percentage of the absorbance of each vanadium concentration relative to the control calculated and the value of the 50% growth inhibition concentration (IC50) was obtained from the % control versus concentration plot. Each assay was repeated three times and the reported IC50 values were the mean of these three runs.

SK-OV-3 = assay: MTT cytotoxicity assay, SK-OV-3; format: cell-based, human; conditions: SK-OV-3, 72 hours
Method: as §1, §2

collagenase = collagenase production by chondrocytes (ELISA); format: cell-based, bovine; conditions: for production of metalloproteases, such as collagenase: summary statement
Summary of the method: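 Bovine articular chondrocytes, orthovanadate 100 μM pretreatment 2 h, then IL 1 (10 ng/ml) or PMA ([…]). Collagenase by ELISA of medium after 24 h; PLA2 as 3H-AA released over 10 min in 1 mg/ml BSA medium; PGE2 by RIA of supernatant after 6 h in Ham's F12.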

K562 = assay: MTT cytotoxicity assay, K562; format: cell-based, human; conditions: K562, 72 hours
Method: as §1
as §2, with “Serial concentrations of solutions of the test compounds (0.05-100 μM) were delivered to the corresponding wells.” left out

P388 (ADR) = assay: MTT cytotoxicity assay, P388 (ADR); format: cell-based, murine; conditions: P388 (ADR), 72 hours; read-out: IC50 Value
Summary of the method: (§3)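 Growth inhibition is scored colorimetrically: MTT reduction over 4 h following 72 h continuous drug exposure (0.05-100 μM), with DMSO-dissolved formazan measured at 570 nm. The IC50 is the 50% growth inhibition concentration on a % control plot, averaged over three independent assays.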

P388 (WT) = assay: MTT cytotoxicity assay, P388 (WT); format: cell-based, murine; conditions: P388 (WT), 72 hours; read-out: IC50 Value
Summary of the method: as §3

Lewis lung = assay: MTT cytotoxicity assay, Lewis lung; format: cell-based, murine; conditions: 72 hours
Method: as §1, §2

[1] = test system: proliferating chondrocytes; assay: viability / proliferation of proliferating chondrocytes (low cell density); format: cell-based; conditions: for proliferation of cells, such as chondrocytes: summary statement
Method: In order to compare the effect of orthovanadate on non-proliferating and proliferating chondrocytes, chondrocytes were plated at both high cell density (2×10^6 to 4×10^6 cells/per well on a six well plate) (nonproliferating) and at a lower cell density (5×10^5 to 1×10^6 cells/per well on a six well plate) (proliferating) and then maintained for 48 hours. The cells were then incubated in media (HAMS F12) containing 0-50 μM Orthovanadate for an additional 48 hours. The cells were harvested and the number of viable cells determined.

Cc1occc(=O)c1[O-].Cc1occc(=O)c1[O-].[O]=[V+2] [BMOV, bis(methylmaltolato) oxovanadium (IV)]
IC50 (H460): 6.4 µM | IC50 (SK-OV-3): 2.6 µM | production of metalloproteases, such as collagenase (collagenase): inhibit | IC50 (K562): > 1000 µM | IC50 (P388 (ADR)): 61.2 µM | IC50 (P388 (WT)): 31.1 µM | IC50 (Lewis lung): 142 µM | proliferation of cells, such as chondrocytes [1]: inhibit

[Na+].[Na+].[Na+].[O]=[V]([O-])([O-])[O-] [orthovanadate, sodium orthovanadate]
IC50 (H460): 1.5 µM | IC50 (SK-OV-3): 2 µM | inhibition of collagenase production (collagenase; 100 μM, IL 1 or PMA stimulated): completely inhibited | production of metalloproteases, such as collagenase (collagenase): inhibit | IC50 (K562): 100 µM | IC50 (P388 (ADR)): 14.8 µM | IC50 (P388 (WT)): 5.5 µM | IC50 (Lewis lung): 42.3 µM | toxicity to cells plated at low cell density ([1]; 0-50 μM, 48 hours): toxic | proliferation of cells, such as chondrocytes [1]: inhibit
